Tests used:
[1] = type: physicochemical; conditions: buffer, 24 h, 10 µM
Experimental: The experiment was carried out by the Center for Applied Mass Spectrometry (CEMSA), São Paulo, Brazil. In brief, the test compounds (10 µM) were incubated at 37 °C for 24 h in the presence of pH-controlled buffer solution at pH 1.2 (simulating the pH of the stomach—0.1 M HCl), pH 7.4 (simulating plasma pH—phosphate buffer) and pH 9.1 (simulating intestinal pH—0.1 M NH4HCO3). Afterward, compounds were quantified by HPLC–MS/MS. Alprenolol drug was used as an analytical control (data not shown). The results were presented as the percentage, comparing the signal at time zero of the assay (100%) with the signal produced by concentrations after the incubation period.

[2] = Cellular viability of HepG2 cells (MTT and neutral red uptake); type: cell-based; conditions: human, HepG2 cells; MTT method, 72 h
Experimental: (§1) Cellular viability was determined using two distinct methods—3-(4,5-dimethylthiazol-2-yl)-2,5-diphenyl-2H-tetrazolium bromide (MTT) and neutral red uptake (NRU). The cell lines employed in the evaluation were Vero and HepG2 cells. Both cell lines were grown with Dulbecco’s Modified Eagle Medium (DMEM-Gibco, Grand Island, NY, USA) and supplemented with 10% fetal bovine serum by Invitrogen, 1% antibiotics (penicillin and streptomycin) by Gibco, and 0.1% fungizone by Gibco. For the MTT and NRU assays, Vero (2 × 10^3 cells/well) and HepG2 (4 × 10^3 cells/well) cells were seeded in 96-well culture plates and incubated overnight. The N-(4-(benzyloxy)benzyl)-4-aminoquinolines were diluted at concentrations of 3 µM using DMSO 1% and were incubated with the cell lines for 72 h at 37 °C. In the MTT investigation, after incubation for 72 h at 37 °C under 5% CO2, the cells were incubated with MTT solution (5 mg/mL, Sigma-Aldrich, St. Louis, MO, USA) for 4 h. The formazan crystals were solubilized in 100 µL of DMSO. An EZ Read 400 microplate reader (Biochrom, Cambridge, UK) was used to measure the absorbance at 570 nm. The mean absorbance of negative control wells was established as the maximum viability and the values of treated cells were calculated as the percentage of vehicle control (1% DMSO). The precipitated purple formazan crystals were directly equivalent to the number of live cells with active mitochondrial metabolism. In the NRU investigation, after 72 h of cell incubation, PBS was used to wash the cells and 200 µL of neutral red dye solution (25 µg/mL, Sigma-Aldrich, St. Louis, MO, USA) prepared in serum-free medium was added to the plate and incubated for 3 h at 37 °C under 5% CO2. Cells were washed with PBS followed by the addition of 100 µL of desorb solution (ethanol/acetic acid/water, 50:1:49) for 30 min with smooth homogenization to extract neutral red dye from the viable cells. An EZ Read 400 microplate reader was operated to measure the absorbance at 562 nm, and the cell viability was attributed as a percentage, considering the vehicle control cell (1% DMSO) as maximum cell viability.

HepG2 cells = assay: as above; type: cell-based; conditions: for HepG2 cell viability in words: 72 h at concentrations similar to MIC, MTT and neutral red; for CC50: neutral red method, 72 h
Experimental: as §1

[3] = Metabolic stability in rat liver microsomes; type: in vitro ADME; conditions: for Metabolism rate class: rat microsomes, classes by Clint; for CLint scaled / half-life: rat, microsomes
Experimental: The experiment was carried out by the Center for Applied Mass Spectrometry (CEMSA), São Paulo, Brazil. In brief, the metabolic stability assay was performed in the presence of rat liver microsomes. Compounds were incubated at 37 °C in a buffered solution containing 1 mg/mL of microsomal protein and nicotinamide adenine dinucleotide […]. The reaction was stopped at different times using acetonitrile. The compound concentration was determined by HPLC–MS/MS at each incubation time (0, 5, 15, and 30 min) and the percentage remaining versus time curve was determined. Verapamil was used as an analytical control (data not shown).

M. tuberculosis H37Rv = assay: Minimum inhibitory concentration (resazurin microplate); type: cell-based, Mycobacterium tuberculosis; conditions: Mycobacterium tuberculosis; M. tuberculosis H37Rv; 7 days + 48 h resazurin; highest value of three assays
[4] = Cellular viability of Vero cells (MTT and neutral red uptake); type: cell-based; conditions: African green monkey, Vero cells; MTT method, 72 h
Experimental: as §1

Vero cells = assay: as above; type: cell-based; conditions: for Vero cell viability in words: 72 h at concentrations similar to MIC, MTT and neutral red; for CC50: neutral red method, 72 h
Experimental: as §1

in vitro = in vitro ADME; conditions: for Papp at 5 h, 10 µM: PAMPA, pH 7.4
Experimental: The experiment was carried out by the Center for Applied Mass Spectrometry (CEMSA), São Paulo, Brazil. In brief, the Parallel Artificial Membrane Permeability Assay (PAMPA) assay consists of quantifying the test compound (via HPLC–MS/MS) after an incubation period, in two solutions separated by an artificial lipid membrane. The result of this test is expressed in units of diffusion rate (permeation). The procedure comprised the following steps: (1) preparing the membrane, which contains lipids, with specific activating solutions, creating a hydrophobic surface that simulates the intestinal epithelial cell; (2) adding the test compound at a concentration of 10 µM to the donor aqueous phase (buffered pH 7.4); (3) after 5 h at room temperature, an aliquot of the solution receptor (buffered at pH 7.4) is removed, in which the compound is transported by passive diffusion, for quantification by HPLC–MS/MS.

## Cc1cc(NCc2ccc(OCc3ccc(Cl)cc3)cc2)c2cc(Br)ccc2n1 [Compound 9n, N-(4-((4-chlorobenzyl)oxy)benzyl)-6-bromo-2-methylquinolin-4-amine]
[1]
  Chemical Stability pH 1.2, remaining compound: 14.9%
  Chemical Stability pH 7.4, remaining compound: 5.0%
  Chemical Stability pH 9.1, remaining compound: 13.8%
[2]
  CC50 at 72 h: > 3000 nM
HepG2 cells
  HepG2 cell viability in words: not significantly altered
  CC50: > 3000 nM
[3]
  Metabolism rate class: moderate (moderate metabolism rates (47 ≤ Clint ≥ 16))
  CLint scaled: 39 mL/min/kg
  half-life: 19 min
M. tuberculosis H37Rv
  MIC: 2.7 µM
other
  melting point: 184 to 186 °C
[4]
  CC50 at 72 h: > 3000 nM
Vero cells
  Vero cell viability in words: not significantly altered
  CC50: > 3000 nM
In vitro
  Passive permeability (PAMPA) in words: low permeability
  Papp at 5 h, 10 µM: 0.3 ×10⁻⁶ cm/s

## Cc1cc(NCc2ccc(OCc3ccc(F)cc3)cc2)c2cc(Br)ccc2n1 [Compound 9o, N-(4-((4-fluorobenzyl)oxy)benzyl) 6-bromo-2-methylquinolin-4-amine]
[1]
  Chemical Stability pH 1.2, remaining compound: 22.9%
  Chemical Stability pH 7.4, remaining compound: 7.6%
  Chemical Stability pH 9.1, remaining compound: 11.1%
[2]
  CC50 at 72 h: > 3000 nM
HepG2 cells
  HepG2 cell viability in words: not significantly altered
  CC50: > 3000 nM
[3]
  Metabolism rate class: high (high metabolism rates (Clint > 47))
  CLint scaled: 56 mL/min/kg
  half-life: 7.9 min
M. tuberculosis H37Rv
  MIC: 2.8 µM
other
  melting point: 173 to 175 °C
[4]
  CC50 at 72 h: > 3000 nM
Vero cells
  Vero cell viability in words: not significantly altered
  CC50: > 3000 nM
In vitro
  Passive permeability (PAMPA) in words: high permeability
  Papp at 5 h, 10 µM: 3 ×10⁻⁶ cm/s

Source: publication PMC9027910, “Synthesis and Antimycobacterial Evaluation of N-(4-(Benzyloxy)benzyl)-4-aminoquinolines” (Molecules, 2022)
